According to patent US20040018941A1, “Fused-benzene derivatives of thiouracil, herbicidal and desiccant compositions contaning them” (ISHIHARA SANGYO KAISHA, LTD., priority 2002, published 2004):

What was measured:
Type in all cases: in vivo
Conditions in all cases: rating 0-100 (0 no damage, 100 complete death), 14 days after application
[1] = test system: redroot pigweed (Amaranthus retroflexus, AMARE); assay: Pre-emerge herbicidal activity, greenhouse screen, AMARE
Description: (§1) A standard greenhouse herbicide activity screening system was used to evaluate the herbicidal efficacy and crop safety of these test compounds. Seven broadleaf weed species including redroot pigweed (Amaranthus retroflexus, AMARE), velvetleaf (Abutilon theophrasti, ABUTH), sicklepod (Cassia obtusifolia, CASOB), ivyleaf morningglory (Ipomoea hederacea, IPOHE), lambsquarters (Chenopodium album, CHEAL), common ragweed (Ambrosia artemisiifolia L., AMBEL), and cocklebur (Xanthium strumarium, XANST) were used as test species. Four grass weed species including green foxtail (Setaria viridis, SETVI), barnyardgrass (Echinochloa crus-galli, ECHCG), johnsongrass (Sorghum halepense, SORHA), and large crabgrass (Digitaria sanguinalis, DIGSA) were also used. In addition, three crop species, field corn (Zea mays L., var. Dekalb 527, CORN), soybean (Glycine max L., var. Pella 86, SOY), and upland rice (Oryza sp., var. Tebonnet, RICE) were included.
(§2) All plants were grown in 10 cm square plastic pots which were filled with a sandy loam soil mix. For pre-emerge tests, seeds were planted one day prior to application of the test compounds. For post-emerge tests, seeds were planted 8-21 days prior to the test to allow emergence and good foliage development prior to application of the test substances. At the time of the post-emerge application, plants of all species were usually at the 2-3 leaf stage of development.
(§3) All test compounds were dissolved in acetone and applied to the test units in a volume of 187 l/ha. Test materials were applied at rates ranging from 15 g ai/ha to 1000 g ai/ha using a track sprayer equipped with a TJ8001 E even flow flat fan spray nozzle. Plants were arranged on a shelf so that the top of the canopy (post-emerge) or top of the soil surface (pre-emerge) was 40-45 cm below the nozzle. Pressurized air was used to force the test solution through the nozzle as it was mechanically advanced over the top of all test plants/pots. This application simulates a typical commercial field herbicide application.
(§4) In the post-emerge test, a commercial non-ionic surfactant was also included (0.25% v/v) to enhance wetting of the leaf surfaces of target plants. Immediately after application, test units of the pre-emerge applications were watered at the soil surface to incorporate the test materials.
(§5) At 14 days after application of the test materials, phytotoxicity ratings were recorded. A rating scale of 0-100 was used as previously described in Research Methods in Weed Science, 2nd edition, B. Truelove, Ed., Southern Weed Science Society, Auburn University, Auburn, Ala., 1977. Briefly, “0” corresponds to no damage and “100” corresponds to complete death of all plants in the test unit. This scale was used both to determine efficacy against weed species and damage to crop species. Herbicide activity data for various compounds of this invention, which are shown by compound No. in Tables 1-7, are shown in Tables 8 and 9.

[2] = test system: velvetleaf (Abutilon theophrasti, ABUTH); assay: Pre-emerge herbicidal activity, greenhouse screen, ABUTH
Description: as §1, §2, §3, §4, §5

[3] = test system: sicklepod (Cassia obtusifolia, CASOB); assay: Pre-emerge herbicidal activity, greenhouse screen, CASOB
Description: as §1, §2, §3, §4, §5

[4] = test system: ivyleaf morningglory (Ipomoea hederacea, IPOHE); assay: Pre-emerge herbicidal activity, greenhouse screen, IPOHE
Description: as §1, §2, §3, §4, §5

[5] = test system: lambsquarters (Chenopodium album, CHEAL); assay: Pre-emerge herbicidal activity, greenhouse screen, CHEAL
Description: as §1, §2, §3, §4, §5

[6] = test system: common ragweed (Ambrosia artemisiifolia L., AMBEL); assay: Pre-emerge herbicidal activity, greenhouse screen, AMBEL
Description: as §1, §2, §3, §4, §5

[7] = test system: green foxtail (Setaria viridis, SETVI); assay: Pre-emerge herbicidal activity, greenhouse screen, SETVI
Description: as §1, §2, §3, §4, §5

[8] = test system: barnyardgrass (Echinochloa crus-galli, ECHCG); assay: Pre-emerge herbicidal activity, greenhouse screen, ECHCG
Description: as §1, §2, §3, §4, §5

[9] = test system: johnsongrass (Sorghum halepense, SORHA); assay: Pre-emerge herbicidal activity, greenhouse screen, SORHA
Description: as §1, §2, §3, §4, §5

[10] = test system: large crabgrass (Digitaria sanguinalis, DIGSA); assay: Pre-emerge herbicidal activity, greenhouse screen, DIGSA
Description: as §1, §2, §3, §4, §5

[11] = test system: field corn (Zea mays L., var. Dekalb 527, CORN); assay: Pre-emerge crop damage, greenhouse screen, CORN
Description: as §1, §2, §3, §4, §5

[12] = test system: soybean (Glycine max L., var. Pella 86, SOY); assay: Pre-emerge crop damage, greenhouse screen, SOY
Description: as §1, §2, §3, §4, §5

[13] = test system: upland rice (Oryza sp., var. Tebonnet, RICE); assay: Pre-emerge crop damage, greenhouse screen, RICE
Description: as §1, §2, §3, §4, §5

[14] = test system: redroot pigweed (Amaranthus retroflexus, AMARE); assay: Post-emerge herbicidal activity, greenhouse screen, AMARE
Description: as §1, §2, §3, §4, §5

[15] = test system: velvetleaf (Abutilon theophrasti, ABUTH); assay: Post-emerge herbicidal activity, greenhouse screen, ABUTH
Description: as §1, §2, §3, §4, §5

[16] = test system: sicklepod (Cassia obtusifolia, CASOB); assay: Post-emerge herbicidal activity, greenhouse screen, CASOB
Description: as §1, §2, §3, §4, §5

[17] = test system: ivyleaf morningglory (Ipomoea hederacea, IPOHE); assay: Post-emerge herbicidal activity, greenhouse screen, IPOHE
Description: as §1, §2, §3, §4, §5

[18] = test system: lambsquarters (Chenopodium album, CHEAL); assay: Post-emerge herbicidal activity, greenhouse screen, CHEAL
Description: as §1, §2, §3, §4, §5

[19] = test system: common ragweed (Ambrosia artemisiifolia L., AMBEL); assay: Post-emerge herbicidal activity, greenhouse screen, AMBEL
Description: as §1, §2, §3, §4, §5

[20] = test system: green foxtail (Setaria viridis, SETVI); assay: Post-emerge herbicidal activity, greenhouse screen, SETVI
Description: as §1, §2, §3, §4, §5

[21] = test system: barnyardgrass (Echinochloa crus-galli, ECHCG); assay: Post-emerge herbicidal activity, greenhouse screen, ECHCG
Description: as §1, §2, §3, §4, §5

[22] = test system: johnsongrass (Sorghum halepense, SORHA); assay: Post-emerge herbicidal activity, greenhouse screen, SORHA
Description: as §1, §2, §3, §4, §5

[23] = test system: large crabgrass (Digitaria sanguinalis, DIGSA); assay: Post-emerge herbicidal activity, greenhouse screen, DIGSA
Description: as §1, §2, §3, §4, §5

[24] = test system: field corn (Zea mays L., var. Dekalb 527, CORN); assay: Post-emerge crop damage, greenhouse screen, CORN
Description: as §1, §2, §3, §4, §5

[25] = test system: soybean (Glycine max L., var. Pella 86, SOY); assay: Post-emerge crop damage, greenhouse screen, SOY
Description: as §1, §2, §3, §4, §5

[26] = test system: upland rice (Oryza sp., var. Tebonnet, RICE); assay: Post-emerge crop damage, greenhouse screen, RICE
Description: as §1, §2, §3, §4, §5

Cn1c(C(F)(F)F)cc(=O)n(-c2ccc(Cl)c3nc(C(C)(C)C)oc23)c1=S [Compound 1-4]
0: Post-emerge Herbicidal Activity DIGSA ([23]; 63 g ai/ha) | Post-emerge Herbicidal Activity CORN (crop damage) ([24]; 63 g ai/ha)
95: Post-emerge Herbicidal Activity IPOHE ([17]; 63 g ai/ha)
10: Pre-emerge Herbicidal Activity SOY (crop damage) ([12]; 63 g ai/ha)
70: Pre-emerge Herbicidal Activity CASOB ([3]; 63 g ai/ha)
20: Post-emerge Herbicidal Activity SORHA ([22]; 63 g ai/ha) | Post-emerge Herbicidal Activity DIGSA ([23]; 250 g ai/ha)
15: Pre-emerge Herbicidal Activity CORN (crop damage) ([11]; 63 g ai/ha)
50: Post-emerge Herbicidal Activity SETVI ([20]; 63 g ai/ha) | Post-emerge Herbicidal Activity SOY (crop damage) ([25]; 63 g ai/ha) | Post-emerge Herbicidal Activity SOY (crop damage) ([25]; 250 g ai/ha)
90: Pre-emerge Herbicidal Activity RICE (crop damage) ([13]; 250 g ai/ha) | Post-emerge Herbicidal Activity AMBEL ([19]; 63 g ai/ha) | Post-emerge Herbicidal Activity AMBEL ([19]; 250 g ai/ha) | Post-emerge Herbicidal Activity ECHCG ([21]; 63 g ai/ha)
100: Pre-emerge Herbicidal Activity AMARE ([1]; 63 g ai/ha) | Pre-emerge Herbicidal Activity AMARE ([1]; 250 g ai/ha) | Pre-emerge Herbicidal Activity ABUTH ([2]; 63 g ai/ha) | Pre-emerge Herbicidal Activity ABUTH ([2]; 250 g ai/ha) | Pre-emerge Herbicidal Activity CASOB ([3]; 250 g ai/ha) | Pre-emerge Herbicidal Activity IPOHE ([4]; 250 g ai/ha) | Pre-emerge Herbicidal Activity CHEAL ([5]; 63 g ai/ha) | Pre-emerge Herbicidal Activity CHEAL ([5]; 250 g ai/ha) | Pre-emerge Herbicidal Activity AMBEL ([6]; 250 g ai/ha) | Pre-emerge Herbicidal Activity SETVI ([7]; 63 g ai/ha) | Pre-emerge Herbicidal Activity SETVI ([7]; 250 g ai/ha) | Pre-emerge Herbicidal Activity ECHCG ([8]; 63 g ai/ha) | Pre-emerge Herbicidal Activity ECHCG ([8]; 250 g ai/ha) | Pre-emerge Herbicidal Activity SORHA ([9]; 63 g ai/ha) | Pre-emerge Herbicidal Activity SORHA ([9]; 250 g ai/ha) | Pre-emerge Herbicidal Activity DIGSA ([10]; 63 g ai/ha) | Pre-emerge Herbicidal Activity DIGSA ([10]; 250 g ai/ha) | Post-emerge Herbicidal Activity AMARE ([14]; 63 g ai/ha) | Post-emerge Herbicidal Activity AMARE ([14]; 250 g ai/ha) | Post-emerge Herbicidal Activity ABUTH ([15]; 63 g ai/ha) | Post-emerge Herbicidal Activity ABUTH ([15]; 250 g ai/ha) | Post-emerge Herbicidal Activity IPOHE ([17]; 250 g ai/ha) | Post-emerge Herbicidal Activity CHEAL ([18]; 63 g ai/ha) | Post-emerge Herbicidal Activity CHEAL ([18]; 250 g ai/ha) | Post-emerge Herbicidal Activity SETVI ([20]; 250 g ai/ha) | Post-emerge Herbicidal Activity ECHCG ([21]; 250 g ai/ha)
60: Pre-emerge Herbicidal Activity RICE (crop damage) ([13]; 63 g ai/ha) | Post-emerge Herbicidal Activity CASOB ([16]; 63 g ai/ha) | Post-emerge Herbicidal Activity RICE (crop damage) ([26]; 63 g ai/ha)
80: Pre-emerge Herbicidal Activity AMBEL ([6]; 63 g ai/ha) | Pre-emerge Herbicidal Activity SOY (crop damage) ([12]; 250 g ai/ha)
99: Pre-emerge Herbicidal Activity IPOHE ([4]; 63 g ai/ha) | Post-emerge Herbicidal Activity CASOB ([16]; 250 g ai/ha)
30: Post-emerge Herbicidal Activity SORHA ([22]; 250 g ai/ha) | Post-emerge Herbicidal Activity CORN (crop damage) ([24]; 250 g ai/ha)
85: Pre-emerge Herbicidal Activity CORN (crop damage) ([11]; 250 g ai/ha)
65: Post-emerge Herbicidal Activity RICE (crop damage) ([26]; 250 g ai/ha)
